Entries after “also recorded” stand apart in the source; their conditions may differ. Where two headings read alike, the source gives them in different places.
Key:
[1] = ref El-Hady et al., 2013; cited from earlier work
AChE = details: read-out: AChE IC50; ref El-Hady et al., 2013; cited from earlier work
[2] = DPPH radical scavenging activity; type: biochemical; details: for DPPH radical scavenging activity: mean ± SD, n = 3; for free-radical scavenging activity (DPPH and ABTS): 0.2 mg/mL (200 μg/mL)
Experimental: The DPPH scavenging activities of PWE and isolated compounds were determined according to the method described by Blois ([1958]). In the method, the stable DPPH radical is removed by the free‐radical scavenging activity of the sample. […] Then, the prepared DPPH solution (1 mL, […]) was added, followed by incubation for 30 min in the dark. After incubation, the DPPH elimination activity of the sample was measured spectrophotometrically (Necip et al., [2021]).

[3] = ABTS radical scavenging activity; type: biochemical; details: 0.2 mg/mL; mean ± SD, n = 3
Experimental: ABTS also forms a relatively stable free‐radical that removes color in its non‐radical form (Shirwaikar et al., [2006]). Spectrophotometric analysis of ABTS˙^+ scavenging activity was determined according to the Re method. In this method, the sample is added to the previously formed ABTS radical solution, and the amount of ABTS˙^+ remaining after a fixed time is spectrophotometrically at 734 nm. […] The absorbance was recorded 30 min after mixing, and the percentage of radical scavenging was calculated for each concentration compared to the blank sample without scavenger (Necip & Durgun, [2022]; Re et al., [1999]).

[4] = molecular target: AChE from electrophorus electricus (Electrophorus electricus, UniProt O42275); assay: biochemical
Sequence of AChE from electrophorus electricus (O42275 24-633): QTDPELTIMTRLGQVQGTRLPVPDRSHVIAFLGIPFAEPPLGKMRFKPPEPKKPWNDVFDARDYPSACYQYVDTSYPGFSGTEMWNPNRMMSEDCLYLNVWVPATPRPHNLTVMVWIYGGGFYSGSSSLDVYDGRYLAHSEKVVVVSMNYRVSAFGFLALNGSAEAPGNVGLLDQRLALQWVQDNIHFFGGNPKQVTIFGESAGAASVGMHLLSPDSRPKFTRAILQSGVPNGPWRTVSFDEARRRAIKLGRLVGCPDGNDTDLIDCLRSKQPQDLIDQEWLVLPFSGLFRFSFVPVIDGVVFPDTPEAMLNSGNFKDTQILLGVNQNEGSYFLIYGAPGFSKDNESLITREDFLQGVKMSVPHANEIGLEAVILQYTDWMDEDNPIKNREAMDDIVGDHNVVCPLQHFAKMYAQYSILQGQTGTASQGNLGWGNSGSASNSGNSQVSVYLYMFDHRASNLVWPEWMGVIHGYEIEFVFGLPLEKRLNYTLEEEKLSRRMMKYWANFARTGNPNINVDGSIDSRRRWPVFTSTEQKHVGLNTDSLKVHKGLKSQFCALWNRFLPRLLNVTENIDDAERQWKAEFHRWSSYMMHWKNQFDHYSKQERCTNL
Experimental: Briefly, 50 μL of 5,5′‐dithio‐bis(2‐nitro‐benzoic) acid compound (DTNB) and 100 μL of Tris–HCl solution (1 M, pH 8.0) and 50 μL AChE from electrophorus electricus (5.32 × 10^−3 U) solution was incubated and stirred at 30°C for 15 min. Finally, the reaction was started by adding 50 μL of acetylthiocholine iodide (AChI), which was used as a substrate. Enzymatic hydrolysis of the substrate was recorded spectrophotometrically at a wavelength of 412 nm (Işık et al., [2020]; Wright & Plummer, [1973]). […] Percent inhibition values and IC50 values were determined using a graph (Kilic et al., [2020]).

[5] = FRAP metal reduction assay; type: biochemical; details: for metal reduction capacity, FRAP (in words): 0.2 mg/mL, Figure 5; for metal-reducing capacity (in words): FRAP and CUPRAC, statement in discussion
Experimental: (§1) The ferric cyanide (Fe^3+) reducing antioxidant power (FRAP) assay was performed using the modified method of the previously described Oyaizu method (Oyaizu, [1986]). The complex is formed when the method is reduced to the ferrous (Fe^2+) ion to ferric tripyridyl triazene (Fe^3+‐TPTZ) complex at 700 nm. It is based on the spectrophotometric measurement of the complex. The reduction capacity for cupric ions (Cu^2+) was determined by cupric ions reducing assay (CUPRAC) as previously described. A volume of 0.25 mL neocuproine (7.5 mM) in ethanol, 0.25 mL NH4Ac (1 M), and 0.25 mL CuCl2 (0.01 M) were mixed with isolated compounds, PWE, and different amounts of standards (10, 20, and 40 μg/mL).

[6] = CUPRAC cupric ions reducing assay; type: biochemical; details: 0.2 mg/mL, Figure 5
Experimental: as §1

| Structure (SMILES) | DPPH radical scavenging activity ([2]; 0.2 mg/mL) | ABTS radical scavenging activity [3] | IC50 [4] | further results |
| --- | --- | --- | --- | --- |
| CC(C)=CCC[C@@H](C)[C@H]1CC[C@@]2(C)[C@@H]3CC[C@H]4C(C)(C)[C@@H](O)CC[C@@]45C[C@@]35CC[C@]12C [3β‐cycloartenol] |  |  |  | free-radical scavenging activity [1]: 59%; IC50 (AChE): 3.6 ± 0.1 µM |
| O=c1cc(-c2ccc(O)cc2)oc2cc(O)cc(O)c12 [Apigenin, apigenin] | 79.02 ± 2.2% | 59.41 ± 1.5% | 710 ± 30 µM | free-radical scavenging activity (DPPH and ABTS) ([2]; DPPH and ABTS): over 60%; metal reduction capacity, FRAP (in words) [5]: moderate metal reduction capacity; metal-reducing capacity (in words) [5]: high metal‐reducing capacity; metal reduction capacity, CUPRAC (in words) [6]: metal reduction capacity close to the standards |
| COc1ccc(O)c(C(C)(C)C)c1 [BHA, reference compound] | 80.20 ± 2.9% | 93.62 ± 3.6% |  |  |
| Cc1cc(C(C)(C)C)c(O)c(C(C)(C)C)c1 [BHT, reference compound] | 51.57 ± 1.5% | 58.06 ± 2.4% |  |  |
| O=c1cc(-c2ccccc2)oc2cc(O)cc(O)c12 [Chrysin, chrysin] | Inactive | 4.35 ± 0.7% | 640 ± 20 µM |  |
| COc1cc2ccc(=O)oc2c(O)c1O [Fraxetin, fraxetin] | 81.11 ± 1.7% | 87.44 ± 3.8% | 730 ± 40 µM | radical scavenging activity (in words) ([2]; DPPH and ABTS, 0.2 mg/mL): highest radical scavenging activities; free-radical scavenging activity (DPPH and ABTS) ([2]; DPPH and ABTS): over 60%; metal reduction capacity, FRAP (in words) [5]: moderate metal reduction capacity; metal-reducing capacity (in words) [5]: high metal‐reducing capacity; metal reduction capacity, CUPRAC (in words) [6]: metal reduction capacity close to the standards |
| O=c1c(O)c(-c2ccccc2)oc2cc(O)cc(O)c12 [Galangin, galangin] | 44.73 ± 1.8% | 62.01 ± 1.9% | 790 ± 20 µM | free-radical scavenging activity (DPPH and ABTS) ([2]; DPPH and ABTS): over 60%; metal reduction capacity, FRAP (in words) [5]: high metal reduction activity; metal-reducing capacity (in words) [5]: high metal‐reducing capacity; metal reduction capacity, CUPRAC (in words) ([6]; listed as 15): high metal reduction activity; also recorded: metal reduction capacity close to the standards |
| COc1cc(O)c2c(=O)cc(-c3ccc(O)cc3)oc2c1 [Genkwanin, genkwanin] | Inactive | 8.95 ± 0.8% | 1150 ± 30 µM |  |
| O=C1c2c(O)cc(O)cc2O[C@H](c2ccccc2)[C@H]1O [Pinobanksin, pinobanksin] | 3.55 ± 0.6% | 15.63 ± 0.9% | 450 ± 10 µM |  |
| O=C1C[C@@H](c2ccccc2)Oc2cc(O)cc(O)c21 [Pinocembrin, pinocembrin] | Inactive | 26.32 ± 1.3% |  | IC50 ([4]; isolated compounds, read-out: AChE (IC50)): 1100 ± 40 µM |
| Cc1c(C)c2c(c(C)c1O)CCC(C)(C(=O)O)O2 (stereo not drawn) [Trolox, trolox, reference compound] | 90.37 ± 3.8% | 89.99 ± 3.2% |  |  |
